# Data published in patent US20210169992A1, “COMPOSITIONS AND METHODS FOR INHIBITING THE PRODUCTION OR ACTIVITY OF D-2HYDROXYGLUTARATE IN SUBJECTS AFFLICTED WITH CANCER” (President and Fellows of Harvard College, priority 2019, published 2021).
# Entries after “also recorded” stand apart in the source; their conditions may differ.
# Key:
# Assay type in all cases: cell-based
# T cells [1] = experiment: Effector function and antigen specific killing assay, OT-1 T cells against B16 OVA+ or OVA− tumor cells
# Excerpt: Data were normalized to cell number. […] Data were normalized to cell number.
# T cells [2] = experiment: Metabolite profiling during time course of T cell activation with and without D-2HG; conditions: T cells activated with vs without D-2HG; FIG. 1
# Excerpt: Log 2 fold change was normalized to the average levels of control group.
# T cells [3] = experiment: Mitochondrial membrane potential by TMRE staining in T cells; conditions: FIG. 4, FIG. 7
# Excerpt: (§1) H2O2 and NAC were used as positive and negative controls, respectively. *P<0.05, **P<0.01, ***P<0.001, ****P<0.0001 (Two-way ANOVA).
# T cells [4] = experiment: Mitochondrial respiration / electron transport chain function in T cells; conditions: D-2HG treated T cells, stress conditions
# Excerpt: as §1
# T cells [5] = experiment: ROS levels following 24 hour treatment; conditions: FIG. 7
# Excerpt: as §1
# D2HGDH = target: T1, D2HGDH (Homo sapiens, UniProt Q8N465); experiment: Isotope tracing of uniformly carbon labeled D-2HG into the TCA cycle; conditions: FIG. 8
# T1 construct: endogenous in cells
# T1 sequence (Q8N465 14-521): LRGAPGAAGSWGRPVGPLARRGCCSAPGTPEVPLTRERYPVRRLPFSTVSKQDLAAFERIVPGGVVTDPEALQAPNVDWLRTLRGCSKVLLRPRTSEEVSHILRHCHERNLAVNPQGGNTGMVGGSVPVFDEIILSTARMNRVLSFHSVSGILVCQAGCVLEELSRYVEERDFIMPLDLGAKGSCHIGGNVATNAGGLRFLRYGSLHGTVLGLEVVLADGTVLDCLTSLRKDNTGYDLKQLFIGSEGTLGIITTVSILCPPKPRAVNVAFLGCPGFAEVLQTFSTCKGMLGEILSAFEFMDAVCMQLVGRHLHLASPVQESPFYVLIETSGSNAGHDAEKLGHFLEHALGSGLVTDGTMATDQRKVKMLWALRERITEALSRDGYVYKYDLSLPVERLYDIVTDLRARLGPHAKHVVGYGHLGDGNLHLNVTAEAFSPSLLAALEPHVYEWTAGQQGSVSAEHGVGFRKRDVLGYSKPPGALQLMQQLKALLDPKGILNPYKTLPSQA
# GL261 cells = experiment: Mitochondrial membrane potential by TMRE staining in GL261 cells; conditions: cancer cells (GL261); FIG. 3
# Procedure: Mitochondrial membrane potential was measured by TMRE staining in control, D-2HG, and L-2HG treated GL261 cells.
# T cells [6] = experiment: T cell proliferation upon activation by Cell Trace Violet staining; conditions: different concentrations of D-2HG, FIG. 6
# T cells [7] = experiment: D-2HG uptake in T cells
# Excerpt: as §1
# T cells [8] = experiment: Apoptosis by Annexin and PI staining; conditions: after 24 hours of treatment; FIG. 6
# T cells [9] = experiment: TCA cycle metabolite levels after 48 hour treatment upon T cell activation; conditions: FIG. 2
# Procedure: A 2 day treatment of 1 mM NMN was used as a positive control. *P<0.05, **P<0.01 (Student's t test and two-way ANOVA).
SMILES,expression of effector markers (T cells [1]; D-2HG treated T cells),"antitumor activity / killing by treated T cells (T cells [1]; T cells activated in presence of D-2HG, FIG. 9)",effect on T cell metabolism upon activation (T cells [2]),mitochondrial membrane potential (TMRE) (T cells [3]),ETC function (T cells [4]),ROS production (T cells [5]),metabolism of D-2HG (D2HGDH),mitochondrial membrane potential (TMRE) (GL261 cells),T cell proliferation (T cells [6]),uptake by T cells (T cells [7]),apoptosis (T cells [8]),TCA cycle metabolite levels (T cells [9])
"O=C(O)CC[C@@H](O)C(=O)O [D-2HG, D-2hydroxyglutarate]",increased expression of effector markers,reduced killing; also recorded: results in the generation of effector T cells with inferior antitumor activity,causes broad changes in T cell metabolism upon activation,causes mitochondrial hyperpolarization,ETC function is impaired under stress conditions,increased ROS production,is metabolized by D2HGDH,mild effect on mitochondrial membrane potential,slows down proliferation,is taken up by T cells,promotes apoptosis,causes accumulation of TCA cycle metabolites
"N#CC(C#N)=NNc1ccc(OC(F)(F)F)cc1 [FCCP, reference compound]",–,–,–,decouples membrane potential in both control and D-2HG treated conditions,–,–,–,–,–,–,–,–
